One assay concerns Dog intraocular pressure. Put plainly: Intraocular pressure in dogs by applanation pneumatonometry. Format: in vivo. The conditions noted are these: 25 μl to the ocular surface, contralateral eye vehicle, IOP before drug administration and at 6 hours thereafter. The protocol: The effects of the compounds of this invention on intraocular pressure are also measured. The compounds are prepared at the said concentrations in a vehicle comprising 0.1% polysorbate 80 and 10 mM TRIS base. Dogs are treated by administering 25 μl to the ocular surface, the contralateral eye received vehicle as a control. Intraocular pressure is measured by applanation pneumatonometry. Dog intraocular pressure is measured immediately before drug administration and at 6 hours thereafter.

The next assay deals with intraocular pressure. Put plainly: Intraocular pressure in glaucomatous cynomolgus monkeys. Conditions: glaucomatous cynomonlgus monkeys. The assay is classed as in vivo.

In the case of `C=CCOC(=O)CCC/C=C\C[C@H]1C(=O)C[C@@H](O)[C@@H]1/C=C/[C@@H](O)CCc1sc2ccccc2c1Cl` [6(a), (Z)-7-{(1R,2R,3R,5S)-2-[(E)-(S)-5-(3-Chlorobenzo[b]thiophen-2-yl)-3-hydroxypent-1-enyl]-3-hydroxy-5-oxocyclopentyl}hept-5-enoic acid allyl ester], in the assay on Dog intraocular pressure, the ocular hypotensive effect entry was “pronounced ocular hypotensive effect”.
As to `O=C(O)CCC/C=C\C[C@H]1C(=O)C[C@@H](O)[C@@H]1/C=C/[C@@H](O)CCc1sc2ccccc2c1Cl` [7(a), (Z)-7-{(1R,2R,3R,5S)-2-[(E)-(S)-5-(3-Chlorobenzo[b]thiophen-2-yl)-3-hydroxypent-1-enyl]-3-hydroxy-5-oxocyclopentyl}hept-5-enoic acid], in the assay with intraocular pressure, the ocular hypotensive effect entry is on record as “pronounced ocular hypotensive effect”.

For the origin of these results see patent US6670485B2, “Prostanoic acid derivatives as agents for lowering intraocular pressure” (Allergan, Inc., priority 2001, dated 2003).
